Test results as given in US12590118B2, “Salt and crystal form of steroid derivative regulator” (Shanghai Hansoh Biomedical Co., Ltd., priority 2019, dated 2026).

Tests used:
ICR mice = assay: Forced swimming model in mice; type: in vivo; conditions: for Mean (immobility, %) / Mean (immobility, s): dose 10 mpk p.o.; for Mean (immobility, %): floating time/240 s; for Mean (immobility, s): latter four minutes of 6 min swim; for immobility time during the latter four minutes compared with that of the model group: forced swimming, ICR mice
Method: The antidepressant effect of the compound was evaluated by the forced swimming model in mice.
Compounds of Examples 1 to 3, Example 9, Example 40, Example 41, Examples 48 to 52, Example 90 and Example 98 of the present invention, prepared by the applicant.
Male ICR mice (25-35 g) were adapted in the experiment environment for 3 days before the forced swimming test.
According to the experiment design, the mice were randomly grouped on the day before the experiment according to body weight, with 12 mice in each group. Before the test, the compounds of each example were administered intragastrically according to the Tmax thereof in the brain in mice pharmacokinetic experiment.
Respectively: • 1) Model group (0.5% CMC-Na-1% Tween 80 solution, p.o., 10 mL/kg); • 2) Compounds of Examples 1 to 3, Example 40, Example 41, Examples 48 to 51, Example 90 and Example 98 (10 mg/kg, p.o., 10 mL/kg); Example 9 and Example 52 (5 mg/kg, p.o., 5 mL/kg).
When being administered, the compounds of each example were suspended in 0.5% CMC-Na+1% Tween 80 solution to the desired concentration.
0.5-1 hour after administration, ICR mice were placed in a forced swimming device (transparent glass drum (water depth 18 cm, water temperature 25-26° C.), one mouse per tank) and forced to swim for 6 minutes. The forced swimming device recorded the floating time of the ICR mice during the entire 6 minutes, and the data of the latter four minutes were used for data analysis. The mice were taken out immediately after the swimming experiment, wiped dry and put back in their original cages.
Note: The criterion for determining the immobility time is that the mouse stops struggling in water and floats, and there are only slight limb movements to keep the head floating on the water.
3.4 Data Analysis Floating time percentage=100*floating time/240 s.

GABA-A receptor = assay: 35S-TBPS binding assay (GABAA receptor binding ability assay); parameters: species or system Sprague-Dawley rat; conditions: rat cerebral cortex cell membrane, 5 μM GABA, 2 nM 35S-TBPS; read-out: IC50 on inhibiting the TBPS binding activity, 35S-TBPS bindng assay
Method: 1. The cerebral cortex of male Sprague-Dawley rat was isolated.
2. A pre-chilled 0.32 M sucrose solution (one tablet of protease inhibitor was added per 100 mL) was added to the cerebral cortex (the volume of sucrose solution was 10 times the volume of the cerebral cortex). The mixture was crushed with a 50 mL glass tissue homogenizer in batches and mixed well.
3. The mixture was centrifuged at 1,500 g, 4° C. for 10 minutes, and the supernatant was collected.
4. The mixture was centrifuged at 20,000 g, 4° C. for 30 minutes, and the supernatant was discarded.
5. The precipitate was resuspended with the pre-chilled phosphate buffer saline (PBS) (one tablet of protease inhibitor was added per 100 mL). An average of 4 mL of PBS was added per rat, and the mixture was mixed well with a glass tissue homogenizer.
6. The mixture was centrifuged at 10,000 g, 4° C. for 10 minutes, and the supernatant was discarded.
7. Steps 5 and 6 were repeated three times.
8. Finally, the precipitate was resuspended with 4 volumes of PBS. The resulting solution was dispensed, frozen in liquid nitrogen, and stored at −80° C.
9. The protein concentration was measured by the bicinchoninic acid (BCA) method.
1. 230 μL of PBS was added to each well of a well plate with 1.1 mL volume.
2. 60 μL of the cerebral cortex cell membrane (5 μg/μL) solution was added to each well, and the mixture was mixed well.
3. The test compound (3 μL per well) was added, and the plate was incubated at 25° C. for 5 minutes. The DMSO concentration was 1%. The initial compound concentration was […], and a
3-fold dilution in gradient was carried out to obtain a total of 8 gradients and 2 replicates. 1% DMSO was used as a negative control, and 10 μM P026-2 was used as a positive control.
4. GABA was added at a final concentration of 5 μM, and incubated at 25° C. for 5 minutes. 1 mM GABA solution was formulated, and 1.5 μL of the solution was added to each well.
5. 35S-TBPS was added at a final concentration of 2 nM. The concentration of isotope mother solution was 9.7 μM. After dilution with PBS for 100 times, 6 μL of the diluted isotope solution was added to each well.
6. The plate was incubated at 4° C. for 20 hours.
7. The FilterMate GF/C plate was pre-treated with 0.5% PEI, and incubated at 4° C. for 1 hour.
8. The FilterMate GF/C plate was washed with Universal Harvester twice, 50 mL PBS each time.
9. The reaction solution was transferred to the GF/C plate, and each well was washed 4 times with 900 μL of PBS.
10. The washed GF/C plate was placed at 55° C. and dried for 10 minutes.
11. 40 μL of scintillation solution was added to each well, and the CPM value was read with TopCount.
In the experiment, the CPM (counts per minute) value was read with TopCount. According to the readings of the High control (DMSO) and the Low control (10 μM of the positive compound) experimental groups, the % inhibition was calculated based on the following formula: % Inhibition=100×(CPMHigh control−CPMsample)/(CPMHigh control−CPMLow control)
The IC50 of the compound was calculated according to the following 4-parameter nonlinear logic formula: Y=Bottom+(Top−Bottom)/(1+10^((Log IC50−X)*HillSlope)),
wherein: • X represents the log of compound concentration, • Y represents the % Inhibition.
The effect of the compound of the present invention on the TBPS binding activity was determined by the above test, and the measured IC50 values are shown in Table 5.

Structure (SMILES) | IC50 (GABA-A receptor) [nM] | other results
C[C@@]1(O)CC[C@H]2[C@H](CC[C@@H]3[C@@H]2CC[C@@]2(C)[C@H]3[C@H](C3CC3)C[C@@H]2C(=O)Cn2ccc(C#N)n2)C1 [Example 49, 1-(2-((3R,5R,8R,9R,10S,13S,14S,15S,17S)-15-Cyclopropyl-3-hydroxy-3,13-dimethylhexadecahydro-1H-cyclopenta[a]phenanthren-17-yl)-2-oxoethyl)-1H-pyrazole-3-carbonitrile] |  | Mean (immobility, %) (ICR mice): 35.74%; Mean (immobility, s) (ICR mice): 85.77 s; immobility time during the latter four minutes compared with that of the model group (ICR mice): very significantly different
C[C@@]1(O)CC[C@H]2[C@H](CC[C@@H]3[C@@H]2CC[C@@]2(C)[C@H]3[C@H](C3CC3)C[C@@H]2C(=O)Cn2nccn2)C1 [Example 50, 1-((3R,5R,8R,9R,10S,13S,14S,15S,17S)-15-Cyclopropyl-3-hydroxy-3,13-dimethylhexadecahydro-1H-cyclopenta[a]phenanthren-17-yl)-2-(2H-1,2,3-triazol-2-yl)ethan-1-one] |  | Mean (immobility, %) (ICR mice): 29.57%; Mean (immobility, s) (ICR mice): 70.96 s; immobility time during the latter four minutes compared with that of the model group (ICR mice): very significantly different
Cc1nnnn1CC(=O)[C@H]1[C@H]2C[C@H]2[C@H]2[C@@H]3CC[C@@H]4C[C@](C)(O)CC[C@@H]4[C@H]3CC[C@@]21C [Example 71, 1-((2R,4aS,4bR,6aS,7S,7aS,8aR,8bR,8cR,10aR)-2-Hydroxy-2,6a-dimethyloctadecahydrocyclopropa[4,5]cyclopenta[1,2-a]phenanthren-7-yl)-2-(5-methyl-1H-tetrazol-1-yl)ethan-1-one] | 11.4 | 
C[C@@]1(O)CC[C@H]2[C@H](CC[C@@H]3[C@@H]2CC[C@@]2(C)[C@H]3[C@@H]3C[C@@H]3[C@@H]2C(=O)Cn2cc([N+](=O)[O-])cn2)C1 [Example 73, 1-((2R,4aS,4bR,6aS,7S,7aS,8aR,8bR,8cR,10aR)-2-Hydroxy-2,6a-dimethyloctadecahydrocyclopropa[4,5]cyclopenta[1,2-a]phenanthren-7-yl)-2-(4-nitro-1H-pyrazol-1-yl)ethan-1-one] | 10.2 | 
C[C@@]1(O)CC[C@H]2[C@H](CC[C@@H]3[C@@H]2CC[C@@]2(C)[C@H]3[C@@H]3C[C@@H]3[C@@H]2C(=O)Cn2nc(C#N)cc2C#N)C1 [Example 84, 1-(2-((2R,4aS,4bR,6aS,7S,7aS,8aR,8bR,8cR,10aR)-2-Hydroxy-2,6a-dimethyloctadecahydrocyclopropa[4,5]cyclopenta[1,2-a]phenanthren-7-yl)-2-oxoethyl)-1H-pyrazole-3,5-dicarbonitrile] | 6.1 | 
C[C@@]1(O)CC[C@H]2[C@H](CC[C@@H]3[C@@H]2CC[C@@]2(C)[C@H]3[C@@H]3C[C@@H]3[C@@H]2C(=O)Cn2cc(-c3ncco3)cn2)C1 [Example 85, 1-((2R,4aS,4bR,6aS,7S,7aS,8aR,8bR,8cR,10aR)-2-Hydroxy-2,6a-dimethyloctadecahydrocyclopropa[4,5]cyclopenta[1,2-a]phenanthren-7-yl)-2-(4-(oxazol-2-yl)-1H-pyrazol-1-yl)ethan-1-one] | 15.8 | 
CC[C@@H]1C[C@H](C(=O)Cn2ccc(C(F)(F)F)n2)[C@@]2(C)CC[C@H]3[C@@H](CC[C@@H]4C[C@](C)(O)CC[C@@H]43)[C@H]12 [Example 91, 1-((3R,5R,8R,9R,10S,13S,14S,15R,17S)-15-Ethyl-3-hydroxy-3,13-dimethylhexadecahydro-1H-cyclopenta[a]phenanthren-17-yl)-2-(3-(trifluoromethyl)-1H-pyrazol-1-yl)ethan-1-one] | 25.2 | 
CC[C@@H]1C[C@H](C(=O)Cn2nnc(C)n2)[C@@]2(C)CC[C@H]3[C@@H](CC[C@@H]4C[C@](C)(O)CC[C@@H]43)[C@H]12 [Example 92, 1-((3R,5R,8R,9R,10S,13S,14S,15R,17S)-15-Ethyl-3-hydroxy-3,13-dimethylhexadecahydro-1H-cyclopenta[a]phenanthren-17-yl)-2-(5-methyl-2H-tetrazol-2-yl)ethan-1-one] | 27 | 
CC[C@@H]1C[C@H](C(=O)Cn2nccn2)[C@@]2(C)CC[C@H]3[C@@H](CC[C@@H]4C[C@](C)(O)CC[C@@H]43)[C@H]12 [Example 94, 1-((3R,5R,8R,9R,10S,13S,14S,15R,17S)-15-Ethyl-3-hydroxy-3,13-dimethylhexadecahydro-1H-cyclopenta[a]phenanthren-17-yl)-2-(2H-1,2,3-triazol-2-yl)ethan-1-one] | 23.9 | 
CC[C@@H]1C[C@H](C(=O)Cn2nc(C#N)cc2C#N)[C@@]2(C)CC[C@H]3[C@@H](CC[C@@H]4C[C@](C)(O)CC[C@@H]43)[C@H]12 [Example 95, 1-(2-((3R,5R,8R,9R,10S,13S,14S,15R,17S)-15-Ethyl-3-hydroxy-3,13-dimethylhexadecahydro-1H-cyclopenta[a]phenanthren-17-yl)-2-oxoethyl)-1H-pyrazole-3,5-dicarbonitrile] | 16.2 | 
C[C@@]1(O)CC[C@H]2[C@H](CC[C@@H]3[C@@H]2CC[C@@]2(C)[C@H]3[C@H](C3CC3)C[C@@H]2C(=O)Cn2ccc(C(F)(F)F)n2)C1 [Example 97, 1-((3R,5R,8R,9R,10S,13S,14S,15S,17S)-15-Cyclopropyl-3-hydroxy-3,13-dimethylhexadecahydro-1H-cyclopenta[a]phenanthren-17-yl)-2-(3-(trifluoromethyl)-1H-pyrazol-1-yl)ethan-1-one] | 18.6 | 
C[C@@]1(O)CC[C@H]2[C@H](CC[C@@H]3[C@@H]2CC[C@@]2(C)[C@H]3[C@H](C3CC3)C[C@@H]2C(=O)Cn2cc(C#N)c(Cl)n2)C1 [Example 99, 3-Chloro-1-(2-((3R,5R,8R,9R,10S,13S,14S,15S,17S)-15-cyclopropyl-3-hydroxy-3,13-dimethylhexadecahydro-1H-cyclopenta[a]phenanthren-17-yl)-2-oxoethyl)-1H-pyrazole-4-carbonitrile] | 24.4 | 
CC[C@@H]1C[C@H](C(=O)Cn2ncnn2)[C@@]2(C)CC[C@H]3[C@@H](CC[C@@H]4C[C@](C)(O)CC[C@@H]43)[C@H]12 [Example 100, 1-((3R,5R,8R,9R,10S,13S,14S,15R,17S)-15-Ethyl-3-hydroxy-3,13-dimethylhexadecahydro-1H-cyclopenta[a]phenanthren-17-yl)-2-(2H-tetrazol-2-yl)ethan-1-one] | 25.6 | 
